{"source": "patent US7319094B2", "about": "“Increased and sustained in vivo gene expression using a nucleic acid, histone and amphipathic compound composition” (Rhode Island Hospital, priority 2001, dated 2008)", "type_in_all_cases": "cell-based, human", "key": {"[1]": {"tested_on": "PNET2 cells induced to express AD7c-NTP", "assay": "Cell morphology by phase contrast microscopy", "conditions": "IPTG-induced AD7c-NTP; insulin 50 nM, IGF-1 5 ng/ml, NGF 2.5 ng/ml, PDGF 5 ng/ml; 24-48 hours", "description": "To examine the effects of different growth factors on AD7c-NTP expression (and over-expression), the cells were serum-starved for 16 hours, after which IPTG (1-5 mM) was added to the medium. Four hours later, the cells were stimulated with insulin (50 nM), IGF-1 (5 ng/ml), NGF ([…]), or platelet-derived growth factor (PDGF; 5 ng/ml) for 24-72 hours. The cells were analyzed for morphological changes, viability, AD7c-NTP immunoreactivity, and expression of pro-apoptosis genes, survival genes, and phospho-tau.\nCells were serum-starved for 24 hours. However, since several hours of IPTG stimulation were required to induce AD7c-NTP gene expression or CAT activity, IPTG (3 mM) was added to the cultures after 16 hours of serum-starvation, i.e. 8 hours prior to growth factor stimulation. The cells were stimulated with insulin (50 nM), IGF-1 (5 ng/ml), NGF (2.5 ng/ml), or PDGF (5 ng/ml) and examined by phase contrast microscopy 24-48 hours later. PNET2 cells could be maintained in serum-free medium for 5 to 7 days with insulin, IGF-1, NGF, or PDGF as the only growth stimulus. In addition, each of these growth factors supports DNA synthesis and promotes modest outgrowth of multipolar neurites in PNET2 cells."}, "[2]": {"tested_on": "p53", "assay": "p53 expression, Western blot / MICE assay", "conditions": "PNET2 cells induced to express AD7c-NTP, growth factor stimulated", "excerpt": "(§1) Standard Western blot assays wew used to measure cellular levels of p53, Bcl-2, p21/Waf1, phospho-tau, tau, c-fos, NTP, and activated (phosphorylated) forms of Erk mitogen activated protein (MAP) kinase, amino-terminal c-jun-activated kinase (pJNK), and p38/HOG1. Immunoprecipitation followed by Western blot analysis was used to measure p85 subunit associated with IRS1. For Western blot analysis of p53 Bcl-2, phospho-tau, tau, c-fos, and NTP, the cells were lysed in ice cold radioimmunoprecipitation assay (RIPA) buffer supplemented with protease and phosphatase inhibitors. For the immunoprecipitation studies, Western blot analysis of phospho-Erk, pJNK, and p38, and the PI3 kinase assays, the cells were harvested in Triton lysis buffer supplemented with protease and phosphatase inhibitors. Protein concentrations were measured using the BCA assay (Pierce, Rockford, Ill.). Samples containing 60 μg of protein were fractionated by sodium dodecyl sulfate polyacrylamide gel electrophoresis (SDS-PAGE), then transferred to PVDF membranes, and analyzed by Western immunoblotting. Immunoreactivity was detected with horseradish peroxidase conjugated secondary IgG and PicoWest enhanced chemiluminescence reagents (Pierce Chemical Company, Rockford, Ill.). CAT activity was measured using known methods.\nThe MICE assay is known in the art (e.g., as described by de la Monte et al., 1999, Biotechniques 26:107301076). The assay is a rapid and sensitive method for quantifying immunoreactivity in 96-well micro-cultures and combines the advantages of the enzyme-linked immunosorbant assay with immunocytochemical staining to permit sensitive in situ quantification of protein expression with values normalized to cell density. […] Immunoreactivity was detected using horseradish peroxidase conjugated secondary antibody (Pierce, Rockford, Ill.) and the TMB soluble peroxidase substrate (Pierce, Rockford, Ill.). Absorbances were measured at 450 nm using a Spectracount plate reader. […]"}, "[3]": {"tested_on": "p25", "assay": "p25 expression, Western blot / MICE assay", "conditions": "PNET2 cells induced to express AD7c-NTP", "excerpt": "as §1, with “For the immunoprecipitation studies, Western blot analysis of phospho-Erk, pJNK, and p38, and the PI3 kinase assays, the cells were harvested in Triton lysis buffer supplemented with protease and phosphatase inhibitors.” left out\nThe MICE assay is known in the art (e.g., as described by de la Monte et al., 1999, Biotechniques 26:107301076). […] Immunoreactivity was detected using horseradish peroxidase conjugated secondary antibody (Pierce, Rockford, Ill.) and the TMB soluble peroxidase substrate (Pierce, Rockford, Ill.). […]"}}, "note": "“Also recorded” adds a separate entry of the source."}
{"substance": "insulin: Human insulin purchased from Novagen", "values": [{"measurement": "cell morphology", "setting": "[1]", "result": "neurite retraction, cell rounding and increased cell death"}, {"measurement": "p53 level", "setting": "[2]", "result": "high levels of p53; also recorded: significantly increased levels"}, {"measurement": "p25 level", "setting": "[3]", "result": "significantly increased levels"}]}
